Experiment [1] deals with T1, Af.Aurora B (Aspergillus fumigatus, UniProt B0XW52). Briefly: In vitro kinase assay (histone H3 phosphorylation), Af.Aurora B. The class given is biochemical. The conditions noted are these: Western blot. How it is done:
(§1) The in vitro kinase assay was performed as previously described. The kinase activity of recombinant Aurora B was assayed by incubating 200 nM purified Aurora B/INCENP protein with 100 µM ATP and 6 µg bulk histones (from calf thymus, Sigma-Aldrich) in kinase buffer containing 50 mM Tris-HCl, pH7.4, 100 mM NaCl, 10 mM MgCl2, 1 mM DTT and 0.1% Tween20. After 15-min incubation at 30 °C, the reaction was quenched by SDS-sample buffer, separated on SDS-PAGE, and immunoblotted with anti-histone H3 and anti-histone H3 phospho-Ser10 (pS10) antibodies. The blots were scanned and quantified with the ChemiDoc™ Touch imaging system (Bio-rad). To investigate the compounds’ inhibitory effect, Aurora B was pre-incubated with DMSO or various concentrations of drugs for 15 min at room temperature and the reactions were then initialised by the addition of ATP and histone substrates.
On the technique in general: Immunoblotting shows a protein as a band on a membrane.

A further experiment concerns Aspergillus fumigatus. Kind of experiment: Anti-Aspergillus fumigatus plate assay. The format is cell-based. The conditions noted are these: 37 °C, 30 h. As to the method: A plate assay was carried out to assess the growth rate of Aspergillus fumigatus. A specified amount of Aspergillus fumigatus spores were inoculated on the centre of the plate containing solid glucose minimal medium in the absence or presence of drugs. After further incubation for 30 h at 37 °C, the growth rate was determined by measuring the diameter of Aspergillus fumigatus clonies on each plate.

A further experiment relates to Hela. Briefly: MTT cell proliferation assay, Hela. The format is cell-based. The note with it: Homo sapiens, read-out: IC50, inhibition of proliferation. How it is done: (§2) MTT assay was conducted for cell proliferation analysis. Cells were cultured in 96-well plates (6 × 10^3/well) and treated with drugs or left untreated for 24–72 h. After treatment, cells were incubated with MTT solution (0.5 mg/mL) for 4 h at 37 °C. Then, the reactions were terminated by DMSO and the optical densities were measured by absorbance at 570 nm.
On the technique in general: Tetrazolium assays rely on reduction of a dye to a coloured formazan, in cell work by metabolically active cells.

In a further experiment the target is T2, human Haspin (Homo sapiens, UniProt Q8TF76).
T2 sequence (Q8TF76 1-798): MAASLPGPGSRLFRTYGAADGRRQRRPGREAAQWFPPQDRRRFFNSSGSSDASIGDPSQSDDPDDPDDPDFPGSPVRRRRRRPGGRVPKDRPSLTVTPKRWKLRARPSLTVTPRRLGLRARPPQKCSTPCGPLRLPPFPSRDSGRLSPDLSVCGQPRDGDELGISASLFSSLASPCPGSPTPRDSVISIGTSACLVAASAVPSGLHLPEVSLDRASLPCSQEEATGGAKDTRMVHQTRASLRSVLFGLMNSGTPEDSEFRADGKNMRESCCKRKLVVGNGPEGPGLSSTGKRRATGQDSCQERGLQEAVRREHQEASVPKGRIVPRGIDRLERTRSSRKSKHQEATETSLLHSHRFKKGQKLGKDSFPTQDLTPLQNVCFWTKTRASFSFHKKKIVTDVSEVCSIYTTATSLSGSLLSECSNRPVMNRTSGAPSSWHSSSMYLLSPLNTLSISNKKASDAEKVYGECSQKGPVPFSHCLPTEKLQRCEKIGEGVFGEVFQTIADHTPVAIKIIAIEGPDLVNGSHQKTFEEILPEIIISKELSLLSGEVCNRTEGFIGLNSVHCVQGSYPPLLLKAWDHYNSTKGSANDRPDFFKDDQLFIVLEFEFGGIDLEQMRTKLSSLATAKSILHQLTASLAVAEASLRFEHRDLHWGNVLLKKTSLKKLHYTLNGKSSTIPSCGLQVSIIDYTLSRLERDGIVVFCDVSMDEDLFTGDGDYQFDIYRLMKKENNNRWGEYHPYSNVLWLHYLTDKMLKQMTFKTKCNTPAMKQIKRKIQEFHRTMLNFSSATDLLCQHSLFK
Kind of experiment: Luciferase-coupled ATP assay (ATPase activity), human Haspin. The class given is biochemical. The conditions noted are these: read-out: IC50, inhibition of human Haspin ATPase activity. How it is done: (§3) A luciferase-based luminescence assay was utilised to determine the ATPase activity of Aurora B according to the manufacture’s protocols (Promega). Briefly, the Aurora B protein was incubated with 10 µM ATP in the absence or presence of various drugs at 30 °C, in a kinase buffer containing 50 mM Tris-HCl, pH7.4, 100 mM NaCl, 10 mM MgCl2, 1 mM DTT, and 0.1% Tween20. At the end of the reaction, the Kinase-Glo reagent (Promega) was added and the ATPase activity was evaluated by luminescence measurement on the microplate reader (SpectraMax-L, Molecular Devices).
Fig. S2 Effect of GSK650394 on human Haspin. (a) Comparison of ATPase activity between Aurora B and Haspin. The luminescence of ATP only control was normalized to 1.0. The values were normalized to ATP-only control set as 100% inhibition. Values are means ± S.E., n = 3. (b) Inhibition of human Haspin ATPase […]
(1 picture or pasted object on this page, not shown here)

Experiment [2] concerns the target T3, human Aurora B (Homo sapiens, UniProt Q96GD4).
T3 construct: the Hs.Aurora B kinase domain (aa.70–344) was co-expressed in E. coli cells; made in house; host or cells: E. coli BL21 (DE3) pLysS
Kind of experiment: Luciferase-coupled ATP assay (ATPase activity), human Aurora B. The class given is biochemical. How it is done: (§4) The pGEX-dual expression plasmid containing human (Hs.) Aurora B kinase domain (aa.54–344) and a C-terminal fragment of Hs.INCENP (aa.835–904) was obtained from Prof. Hongtao Yu (Department of Life Science, Westlake University). The cDNAs of Af.Aurora B kinase domain (aa.1–396, GenBank accession no. EDP54304.1) and the C-terminal fragment of Af.INCENP (aa.1200–1297, GenBank accession no. XP_033417438.1) was synthesised in Union Biotech (China). Protein expression and purification were performed as previously described. Briefly, The recombinant proteins of Aurora B and INCENP were coexpressed in BL21 (DE3) pLysS competent cells. For protein purification, cells co-expressing GST-INCENP and Aurora B proteins were resuspended with lysis buffer containing 50 mM Tris-HCl, pH 8.0, 200 mM NaCl, 5% glycerol, and 0.05% Triton X-100. Cells were disrupted by French Pressure (Union Biotech, China) and the supernatants were collected after centrifugation. The Aurora B/Hs.INCENP complex proteins were pooled through Glutathione columns (Smart-Lifesciences, China). […]
(§5) A luciferase-based luminescence assay was utilised to determine the ATPase activity of Aurora B according to the manufacture’s protocols (Promega). […] At the end of the reaction, the Kinase-Glo reagent (Promega) was added and the ATPase activity was evaluated by luminescence measurement on the microplate reader (SpectraMax-L, Molecular Devices).

For experiment [3], the target named is T1, Af.Aurora B. Briefly: Luciferase-coupled ATP assay (ATPase activity), Af.Aurora B. The format is biochemical. The note with it: IC50, inhibition of ATPase activity of Af.Aurora B, recombinant Af.Aurora B, n = 3. How it is done: as §4, §5
The next experiment concerns MCF-7. Kind of experiment: MTT cell proliferation assay, MCF-7. The format is cell-based. The note with it: Homo sapiens, MCF7; MCF-7, MTT; read-out: IC50, inhibition of proliferation. As to the method: as §2
Experiment [4] has as its target T3, human Aurora B. Kind of experiment: In vitro kinase assay (histone H3 Ser10 phosphorylation), human Aurora B. The conditions noted are these: Western blot. The format is biochemical. As to the method: as §1
Experiment [5] has as its system endogenous Aurora B in HepG2 cells. Briefly: Histone H3 Ser10 phosphorylation in HepG2 cells (immunoblot). The format is cell-based, human. The note with it: HepG2, 9 h after release from thymidine arrest. As to the method: (§6) HepG2 and HeLa cells were cultured in DMEM and RPMI-1640, respectively, supplemented with 10% foetal bovine serum in 37 °C and 5% CO2. G1/S synchronisation was carried out by treating cells with 2 mM of thymidine for 19 h. […] Subsequently, cells were harvested and subjected to immunoblotting or flow cytometric analysis. For flow cytometry assay, cells were trypsinized, washed once with PBS, and then fixed with cold 75% ethanol. Fixed cells were washed with PBS and resuspended in PBS containing the propidium iodide (Sigma) DNA staining solution, for 30 min at 37 °C. Then, samples were analysed using the Cytoflex cytometer (Beckman Coulter, USA) and the data were processed with the Flow Jo software.

For another experiment, the system named is LO2. Kind of experiment: MTT cell proliferation assay, LO2. The note with it: Homo sapiens, L02, read-out: IC50, inhibition of proliferation. The class given is cell-based. As to the method:
as §2

Another experiment relates to HepG2. Briefly: MTT cell proliferation assay, HepG2. The class given is cell-based. The conditions noted are these: Homo sapiens, read-out: IC50, inhibition of proliferation. How it is done: as §2
In experiment [6] the test system is endogenous Aurora B in HeLa cells. Kind of experiment: Histone H3 Ser10 phosphorylation in HeLa cells (immunoblot). The class given is cell-based, human. The note with it: 9 h after release from thymidine arrest, vs control cells. As to the method:
as §6

The next experiment deals with T4, V91A Aurora B (Homo sapiens, UniProt Q96GD4, V91A).
T4 construct: the Hs.Aurora B kinase domain (aa.70–344) was co-expressed in E. coli cells; made in house; host or cells: E. coli BL21 (DE3) pLysS
Kind of experiment: Luciferase-coupled ATP assay, V91A mutant Aurora B. The format is biochemical. How it is done: as §3

In another experiment the test system is HELF. Kind of experiment: MTT cell proliferation assay, HELF. The note with it: read-out: IC50, inhibition of proliferation. The class given is cell-based. As to the method:
as §2

Experiment [7] has as its system acute myelogenous leukaemia (AML). More on the design: method as in PMID 23763917. The note with it: patients with AML, combined with low-dose cytosine arabinoside (LDAC); cited from earlier work.

Values joined by “and” are separate entries in the source; they are usually repeats but may differ in a detail not shown here. Equal values may be shown once.

T4 sequence (Q96GD4 70-344 V91A): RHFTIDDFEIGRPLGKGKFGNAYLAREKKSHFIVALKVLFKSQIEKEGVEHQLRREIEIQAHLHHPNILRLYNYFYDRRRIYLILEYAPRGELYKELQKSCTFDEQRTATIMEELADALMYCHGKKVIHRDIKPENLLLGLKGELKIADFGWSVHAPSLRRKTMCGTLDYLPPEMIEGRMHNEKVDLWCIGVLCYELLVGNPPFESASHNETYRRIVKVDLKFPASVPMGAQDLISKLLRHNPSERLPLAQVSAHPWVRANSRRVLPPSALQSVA
T4 sequence (Q9NQS7 835-904 partner limits assumed): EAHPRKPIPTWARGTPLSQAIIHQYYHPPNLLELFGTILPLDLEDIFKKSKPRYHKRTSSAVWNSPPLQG
T3 sequence (Q96GD4 70-344): as the sequence (Q96GD4 70-344 V91A) above, with A22V counted along it
T3 sequence (Q9NQS7 835-904 partner limits assumed): as the sequence (Q9NQS7 835-904 partner limits assumed) above

As for `O=C(O)c1ccc(-c2c[nH]c3ncc(-c4ccccc4)cc23)cc1C1CCCC1` [GSK650394], the “effect on kinase activity of Af. Aurora B” value at Af.Aurora B [1] is recorded as “effectively inhibits”. For the same molecule, the “growth rate of Aspergillus fumigatus (diameter of colonies)” value in the experiment with Aspergillus fumigatus is on record as “markedly inhibited in a dose-dependent manner”. Moreover, the IC50 was 3570 ± 1380 nM in the experiment with Hela; 41400 nM at human Haspin; 5680 nM against human Aurora B [2]; 1290 nM and 1300 nM on Af.Aurora B [3]; 1420 ± 1190 nM in the experiment with MCF-7; 1750 ± 1280 nM in the experiment on LO2. Moreover, the IC50 with HepG2 was 1530 ± 1880 nM; on V91A Aurora B (Val91 mutant, read-out: IC50, inhibition of V91A Aurora B), above 100000 nM; with HELF, 6140 ± 1330 nM. At human Aurora B [4], the “effect on phosphorylation of histone H3 Ser10 by Aurora B” value was “diminish the phosphorylation of histone H3 Ser10”. For the same molecule, the “concentration at which H3 phosphorylation is abolished” value in experiment [5] is reported as 2.5 µM. Further, the “effect on histone H3 phosphorylation” value in [5] (vs control cells) and in experiment [6] was “significant attenuation of histone H3 phosphorylation” each time. Also, the “reduction of inhibitory effect by mutation of Val91” value on V91A Aurora B (V91A vs wild type) is recorded as above 20 fold.

Consider `CCN(CCCOc1ccc2c(Nc3cc(CC(=O)Nc4cccc(F)c4)n[nH]3)ncnc2c1)CCOP(=O)(O)O` [barasertib], for which the overall response rate in experiment [7] is given as 45%.

The record behind these values is PMC8667888, “Discovery of a novel Aurora B inhibitor GSK650394 with potent anticancer and anti-aspergillus fumigatus dual efficacies in vitro” (Journal of Enzyme Inhibition and Medicinal Chemistry, 2021).
